The target of assay [1] is T1, Death-associated protein kinase 3 (Homo sapiens, UniProt O43293). Put plainly: Inhibition of human recombinant DAPK3 at 10 uM.
Target sequence in this assay (O43293 whole entry, looked up): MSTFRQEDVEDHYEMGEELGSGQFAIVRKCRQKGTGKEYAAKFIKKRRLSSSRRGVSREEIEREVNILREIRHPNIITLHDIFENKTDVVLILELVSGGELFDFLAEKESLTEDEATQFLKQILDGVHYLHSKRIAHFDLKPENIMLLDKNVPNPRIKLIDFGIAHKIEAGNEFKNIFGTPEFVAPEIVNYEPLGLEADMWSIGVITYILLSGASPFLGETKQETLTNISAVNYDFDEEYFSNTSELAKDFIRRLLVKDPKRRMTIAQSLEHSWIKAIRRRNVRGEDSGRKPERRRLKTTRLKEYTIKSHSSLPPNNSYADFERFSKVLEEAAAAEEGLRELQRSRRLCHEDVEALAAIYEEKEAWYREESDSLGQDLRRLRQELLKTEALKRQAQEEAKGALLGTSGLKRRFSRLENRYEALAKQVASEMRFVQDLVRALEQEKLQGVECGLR
For assay [2], the target named is RAC-alpha serine/threonine-protein kinase (Homo sapiens) (UniProt P31749). Briefly: Inhibition of AKT1 at 10 uM.
The target of assay [3] is Mitogen-activated protein kinase 14 (Homo sapiens) (UniProt Q16539). Put plainly: Inhibition of P38alpha at 10 uM.
The target of assay [4] is RAC-beta serine/threonine-protein kinase (Homo sapiens) (UniProt P31751). Briefly: Inhibition of AKT2 at 10 uM.
RAC-beta serine/threonine-protein kinase (Homo sapiens), sequence (P31751 whole entry): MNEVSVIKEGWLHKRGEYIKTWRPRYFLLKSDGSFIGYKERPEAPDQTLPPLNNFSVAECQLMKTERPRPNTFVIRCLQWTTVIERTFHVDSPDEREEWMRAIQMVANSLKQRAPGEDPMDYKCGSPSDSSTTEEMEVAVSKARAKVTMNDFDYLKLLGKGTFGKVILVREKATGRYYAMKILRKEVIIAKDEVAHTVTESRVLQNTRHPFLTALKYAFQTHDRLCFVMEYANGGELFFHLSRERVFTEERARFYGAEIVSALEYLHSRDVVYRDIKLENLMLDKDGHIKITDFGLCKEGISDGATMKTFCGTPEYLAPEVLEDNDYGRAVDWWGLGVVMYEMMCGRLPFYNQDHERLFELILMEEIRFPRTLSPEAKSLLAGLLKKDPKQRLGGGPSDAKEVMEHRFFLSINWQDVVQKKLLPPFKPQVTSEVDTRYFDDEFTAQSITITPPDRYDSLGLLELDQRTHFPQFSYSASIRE
For assay [5], the target named is Tyrosine-protein kinase Lyn (Homo sapiens) (UniProt P07948). Briefly: Inhibition of LYN at 10 uM.
Assay [6] deals with Serine/threonine-protein kinase Chk2 (Homo sapiens) (UniProt O96017). Briefly: Inhibition of CHK2 at 10 uM.
The target of assay [7] is T2, Serine/threonine-protein kinase Chk1 (Homo sapiens) (UniProt O14757).
T2 sequence (whole entry): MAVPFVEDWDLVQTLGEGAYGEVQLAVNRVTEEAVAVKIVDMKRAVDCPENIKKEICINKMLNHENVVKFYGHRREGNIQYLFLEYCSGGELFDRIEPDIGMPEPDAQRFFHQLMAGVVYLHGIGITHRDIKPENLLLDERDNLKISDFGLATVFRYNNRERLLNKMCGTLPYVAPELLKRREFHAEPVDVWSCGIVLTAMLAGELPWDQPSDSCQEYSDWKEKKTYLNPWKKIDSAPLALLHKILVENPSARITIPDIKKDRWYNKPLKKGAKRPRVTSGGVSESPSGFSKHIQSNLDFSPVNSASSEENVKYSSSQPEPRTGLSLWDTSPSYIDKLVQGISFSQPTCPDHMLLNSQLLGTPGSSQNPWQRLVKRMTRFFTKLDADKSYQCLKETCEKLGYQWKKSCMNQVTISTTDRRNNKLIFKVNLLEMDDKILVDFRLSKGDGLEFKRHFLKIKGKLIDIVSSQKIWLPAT
Put plainly: Inhibition of CHK1 at 10 uM.

In assay [8] the target is T3, Protein kinase C zeta type (Homo sapiens) (UniProt Q05513).
T3 sequence (whole entry): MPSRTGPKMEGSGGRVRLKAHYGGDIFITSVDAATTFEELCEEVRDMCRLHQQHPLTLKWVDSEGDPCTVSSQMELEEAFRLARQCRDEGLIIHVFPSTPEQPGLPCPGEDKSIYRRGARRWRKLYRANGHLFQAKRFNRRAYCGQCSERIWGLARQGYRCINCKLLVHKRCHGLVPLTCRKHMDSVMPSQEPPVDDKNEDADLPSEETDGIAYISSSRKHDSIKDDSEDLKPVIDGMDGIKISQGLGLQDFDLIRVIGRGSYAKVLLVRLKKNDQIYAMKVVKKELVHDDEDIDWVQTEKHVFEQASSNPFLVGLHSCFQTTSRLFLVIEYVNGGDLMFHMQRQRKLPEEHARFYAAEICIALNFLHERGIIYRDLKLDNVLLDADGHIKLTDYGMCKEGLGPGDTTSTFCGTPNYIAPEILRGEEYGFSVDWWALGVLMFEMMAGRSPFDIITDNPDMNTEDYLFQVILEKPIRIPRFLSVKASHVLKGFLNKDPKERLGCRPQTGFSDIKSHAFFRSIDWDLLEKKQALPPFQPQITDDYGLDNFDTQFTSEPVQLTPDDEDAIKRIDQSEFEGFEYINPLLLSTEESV
Put plainly: Inhibition of PKCzeta at 10 uM.

In assay [9] the target is T1, Death-associated protein kinase 3. Briefly: Inhibition of human recombinant DAPK3.
Target sequence in this assay (O43293 whole entry): as the sequence (O43293 whole entry, looked up) above
Assay [10] has as its target Insulin receptor (Homo sapiens) (UniProt P06213). Briefly: Inhibition of INSR at 10 uM.
Assay [11] deals with T4, Serine/threonine-protein kinase D2 (Homo sapiens) (UniProt Q9BZL6).
T4 sequence (whole entry): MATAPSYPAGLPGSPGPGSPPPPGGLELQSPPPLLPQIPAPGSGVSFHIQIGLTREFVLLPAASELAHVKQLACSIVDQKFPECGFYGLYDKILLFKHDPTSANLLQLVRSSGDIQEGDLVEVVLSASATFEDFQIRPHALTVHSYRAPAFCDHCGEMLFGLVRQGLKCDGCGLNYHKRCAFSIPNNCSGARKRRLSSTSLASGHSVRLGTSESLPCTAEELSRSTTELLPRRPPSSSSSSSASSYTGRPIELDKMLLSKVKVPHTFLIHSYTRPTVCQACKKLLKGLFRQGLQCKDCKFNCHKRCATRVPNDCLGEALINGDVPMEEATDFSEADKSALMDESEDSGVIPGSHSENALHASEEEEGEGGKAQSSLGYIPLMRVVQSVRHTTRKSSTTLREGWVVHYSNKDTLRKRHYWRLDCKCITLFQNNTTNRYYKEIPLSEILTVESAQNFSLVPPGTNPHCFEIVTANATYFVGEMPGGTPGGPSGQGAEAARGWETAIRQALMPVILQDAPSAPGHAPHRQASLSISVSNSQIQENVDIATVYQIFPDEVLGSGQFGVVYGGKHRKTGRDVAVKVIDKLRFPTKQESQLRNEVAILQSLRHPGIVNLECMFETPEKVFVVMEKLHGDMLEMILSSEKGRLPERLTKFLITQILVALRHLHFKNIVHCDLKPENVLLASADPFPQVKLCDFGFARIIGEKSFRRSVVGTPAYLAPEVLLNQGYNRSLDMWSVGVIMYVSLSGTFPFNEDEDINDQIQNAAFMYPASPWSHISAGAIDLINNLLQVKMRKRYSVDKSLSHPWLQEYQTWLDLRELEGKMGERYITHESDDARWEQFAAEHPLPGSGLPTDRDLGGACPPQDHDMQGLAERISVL
Put plainly: Inhibition of PKD2 at 10 uM.

Assay [12] deals with Proto-oncogene tyrosine-protein kinase Src (Homo sapiens) (UniProt P12931). Briefly: Inhibition of SRC at 10 uM.
Proto-oncogene tyrosine-protein kinase Src (Homo sapiens), sequence (P12931 2-536 limits assumed): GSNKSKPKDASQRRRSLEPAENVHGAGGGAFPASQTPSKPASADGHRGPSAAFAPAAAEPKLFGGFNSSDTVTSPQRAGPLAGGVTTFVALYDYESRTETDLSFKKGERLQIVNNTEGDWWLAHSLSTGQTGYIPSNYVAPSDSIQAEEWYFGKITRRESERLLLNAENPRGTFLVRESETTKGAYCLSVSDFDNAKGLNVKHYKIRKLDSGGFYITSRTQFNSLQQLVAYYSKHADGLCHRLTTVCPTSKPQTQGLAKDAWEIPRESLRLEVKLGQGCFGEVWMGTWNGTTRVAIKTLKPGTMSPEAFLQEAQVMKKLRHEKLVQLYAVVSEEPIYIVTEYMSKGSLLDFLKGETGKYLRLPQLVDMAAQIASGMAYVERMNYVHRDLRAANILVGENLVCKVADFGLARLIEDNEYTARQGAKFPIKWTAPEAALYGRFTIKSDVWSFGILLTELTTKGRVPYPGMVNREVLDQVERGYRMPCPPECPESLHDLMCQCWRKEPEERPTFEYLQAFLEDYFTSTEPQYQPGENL
For assay [13], the target named is T5, Aurora kinase A (Homo sapiens) (UniProt O14965).
T5 sequence (whole entry): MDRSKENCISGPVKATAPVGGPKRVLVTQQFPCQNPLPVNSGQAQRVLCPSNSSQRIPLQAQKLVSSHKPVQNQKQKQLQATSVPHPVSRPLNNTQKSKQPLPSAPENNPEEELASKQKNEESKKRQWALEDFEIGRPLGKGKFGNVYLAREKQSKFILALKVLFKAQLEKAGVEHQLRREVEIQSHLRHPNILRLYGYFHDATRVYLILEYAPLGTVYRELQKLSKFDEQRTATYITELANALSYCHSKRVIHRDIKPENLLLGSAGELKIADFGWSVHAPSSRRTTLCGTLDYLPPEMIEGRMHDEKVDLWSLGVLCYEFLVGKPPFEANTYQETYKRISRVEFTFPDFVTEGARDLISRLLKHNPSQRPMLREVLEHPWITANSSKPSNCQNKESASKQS
Put plainly: Inhibition of Aurora A at 10 uM.

For assay [14], the target named is Mitogen-activated protein kinase 1 (Homo sapiens) (UniProt P28482). Put plainly: Inhibition of ERK2 at 10 uM.
Assay [15] deals with Death-associated protein kinase 1 (Homo sapiens) (UniProt P53355). Briefly: Inhibition of DAPK1 at 10 uM.
Death-associated protein kinase 1 (Homo sapiens), sequence (P53355 whole entry, looked up): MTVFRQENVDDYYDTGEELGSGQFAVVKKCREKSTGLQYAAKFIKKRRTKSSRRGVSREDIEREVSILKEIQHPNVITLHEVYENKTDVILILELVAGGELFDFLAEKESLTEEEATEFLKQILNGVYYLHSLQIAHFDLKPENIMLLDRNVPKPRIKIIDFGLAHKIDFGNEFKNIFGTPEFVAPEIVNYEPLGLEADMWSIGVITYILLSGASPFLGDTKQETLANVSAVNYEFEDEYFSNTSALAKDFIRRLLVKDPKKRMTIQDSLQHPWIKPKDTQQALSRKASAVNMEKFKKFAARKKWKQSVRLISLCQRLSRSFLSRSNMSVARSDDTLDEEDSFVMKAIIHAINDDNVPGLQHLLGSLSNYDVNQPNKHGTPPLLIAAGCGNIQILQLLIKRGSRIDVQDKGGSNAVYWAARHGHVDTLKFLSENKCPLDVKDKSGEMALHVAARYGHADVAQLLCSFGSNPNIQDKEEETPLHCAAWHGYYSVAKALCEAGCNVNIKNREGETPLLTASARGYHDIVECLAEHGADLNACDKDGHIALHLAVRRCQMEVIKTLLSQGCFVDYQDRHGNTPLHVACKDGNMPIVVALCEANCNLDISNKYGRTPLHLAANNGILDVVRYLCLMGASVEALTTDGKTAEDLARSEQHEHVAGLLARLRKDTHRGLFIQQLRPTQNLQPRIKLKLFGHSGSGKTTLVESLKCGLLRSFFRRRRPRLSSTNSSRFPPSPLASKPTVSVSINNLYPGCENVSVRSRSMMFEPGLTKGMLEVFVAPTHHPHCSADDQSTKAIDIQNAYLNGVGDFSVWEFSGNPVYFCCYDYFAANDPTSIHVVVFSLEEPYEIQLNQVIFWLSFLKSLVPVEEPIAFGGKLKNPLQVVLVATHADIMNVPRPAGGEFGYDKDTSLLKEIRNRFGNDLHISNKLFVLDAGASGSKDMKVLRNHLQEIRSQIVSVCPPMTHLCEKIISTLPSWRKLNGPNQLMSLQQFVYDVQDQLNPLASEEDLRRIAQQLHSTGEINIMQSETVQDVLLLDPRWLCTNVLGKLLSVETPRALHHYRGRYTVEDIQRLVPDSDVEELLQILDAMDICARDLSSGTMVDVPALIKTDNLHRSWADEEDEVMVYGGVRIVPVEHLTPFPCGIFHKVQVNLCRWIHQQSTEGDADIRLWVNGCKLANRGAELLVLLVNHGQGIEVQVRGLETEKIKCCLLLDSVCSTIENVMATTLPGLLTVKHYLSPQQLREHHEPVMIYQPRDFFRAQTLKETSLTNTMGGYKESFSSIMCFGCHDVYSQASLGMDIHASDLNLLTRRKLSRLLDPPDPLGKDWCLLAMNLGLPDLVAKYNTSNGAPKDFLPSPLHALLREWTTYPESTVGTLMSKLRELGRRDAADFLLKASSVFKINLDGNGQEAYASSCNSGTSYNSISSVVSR
The nature of assay [16]: Inhibition of PKA at 10 uM.
Assay [17] addresses Mitogen-activated protein kinase 3 (Homo sapiens) (UniProt P27361). Briefly: Inhibition of ERK1 at 10 uM.
Assay [18] concerns the target Glycogen synthase kinase-3 beta (Homo sapiens) (UniProt P49841). Briefly: Inhibition of GSK3-beta at 10 uM.
Assay [19] deals with T1, Death-associated protein kinase 3. Put plainly: Inhibition of human recombinant DAPK3 at 1 uM.
Target sequence in this assay (O43293 whole entry, looked up): as the sequence (O43293 whole entry, looked up) above
In assay [20] the target is Tyrosine-protein kinase Fyn (Homo sapiens) (UniProt P06241). Put plainly: Inhibition of FYN at 10 uM.
Assay [21] has as its target Tyrosine-protein kinase Lck (Homo sapiens) (UniProt P06239). Briefly: Inhibition of LCK at 10 uM.
Assay [22] has as its target Ribosomal protein S6 kinase alpha-1 (Homo sapiens) (UniProt Q15418). Put plainly: Inhibition of RSK1 at 10 uM.
Assay [23] deals with Tyrosine-protein kinase ABL1 (Homo sapiens) (UniProt P00519). Put plainly: Inhibition of ABL at 10 uM.
Assay [24] deals with MAP kinase-activated protein kinase 2 (Homo sapiens) (UniProt P49137). Put plainly: Inhibition of MAPKAPK2 at 10 uM.

The structures appear in SMILES notation.

Insulin receptor (Homo sapiens), sequence (P06213 28-758 limits assumed): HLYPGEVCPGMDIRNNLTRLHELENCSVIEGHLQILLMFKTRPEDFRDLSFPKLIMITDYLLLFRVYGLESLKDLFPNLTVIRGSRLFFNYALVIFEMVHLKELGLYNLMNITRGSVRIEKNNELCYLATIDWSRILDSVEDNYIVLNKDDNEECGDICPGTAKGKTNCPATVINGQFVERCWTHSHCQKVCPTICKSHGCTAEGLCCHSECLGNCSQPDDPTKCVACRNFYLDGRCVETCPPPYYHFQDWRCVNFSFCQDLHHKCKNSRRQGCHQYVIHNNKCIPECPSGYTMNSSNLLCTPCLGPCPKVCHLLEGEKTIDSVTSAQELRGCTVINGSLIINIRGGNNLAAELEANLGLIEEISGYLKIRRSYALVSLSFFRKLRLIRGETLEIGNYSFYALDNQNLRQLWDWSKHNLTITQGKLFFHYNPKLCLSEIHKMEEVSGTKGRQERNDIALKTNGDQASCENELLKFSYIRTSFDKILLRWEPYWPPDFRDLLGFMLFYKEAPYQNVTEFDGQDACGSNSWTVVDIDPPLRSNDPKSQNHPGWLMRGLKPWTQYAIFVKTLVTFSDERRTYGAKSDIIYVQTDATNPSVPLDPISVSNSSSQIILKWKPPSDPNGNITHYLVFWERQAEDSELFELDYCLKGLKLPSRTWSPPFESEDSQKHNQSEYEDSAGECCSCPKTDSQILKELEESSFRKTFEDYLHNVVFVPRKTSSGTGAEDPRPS
Insulin receptor (Homo sapiens), sequence (P06213 763-1382 limits assumed): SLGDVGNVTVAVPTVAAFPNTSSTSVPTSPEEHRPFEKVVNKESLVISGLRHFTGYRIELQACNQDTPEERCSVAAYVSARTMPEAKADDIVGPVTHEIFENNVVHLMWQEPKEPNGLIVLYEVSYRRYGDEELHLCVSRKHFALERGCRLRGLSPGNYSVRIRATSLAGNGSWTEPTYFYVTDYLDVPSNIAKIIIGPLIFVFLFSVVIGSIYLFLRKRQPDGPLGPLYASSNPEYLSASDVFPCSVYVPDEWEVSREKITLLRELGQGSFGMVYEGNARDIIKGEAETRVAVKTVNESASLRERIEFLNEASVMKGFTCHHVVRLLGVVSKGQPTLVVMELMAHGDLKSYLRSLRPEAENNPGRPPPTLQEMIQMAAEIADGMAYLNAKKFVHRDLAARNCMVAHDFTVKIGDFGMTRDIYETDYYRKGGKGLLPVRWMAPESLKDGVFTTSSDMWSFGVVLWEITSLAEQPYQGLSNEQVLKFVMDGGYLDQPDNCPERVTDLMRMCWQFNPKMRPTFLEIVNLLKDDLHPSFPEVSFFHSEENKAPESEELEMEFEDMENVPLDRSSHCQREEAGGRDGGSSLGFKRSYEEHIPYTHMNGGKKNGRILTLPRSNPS
RAC-alpha serine/threonine-protein kinase (Homo sapiens), sequence (P31749 whole entry): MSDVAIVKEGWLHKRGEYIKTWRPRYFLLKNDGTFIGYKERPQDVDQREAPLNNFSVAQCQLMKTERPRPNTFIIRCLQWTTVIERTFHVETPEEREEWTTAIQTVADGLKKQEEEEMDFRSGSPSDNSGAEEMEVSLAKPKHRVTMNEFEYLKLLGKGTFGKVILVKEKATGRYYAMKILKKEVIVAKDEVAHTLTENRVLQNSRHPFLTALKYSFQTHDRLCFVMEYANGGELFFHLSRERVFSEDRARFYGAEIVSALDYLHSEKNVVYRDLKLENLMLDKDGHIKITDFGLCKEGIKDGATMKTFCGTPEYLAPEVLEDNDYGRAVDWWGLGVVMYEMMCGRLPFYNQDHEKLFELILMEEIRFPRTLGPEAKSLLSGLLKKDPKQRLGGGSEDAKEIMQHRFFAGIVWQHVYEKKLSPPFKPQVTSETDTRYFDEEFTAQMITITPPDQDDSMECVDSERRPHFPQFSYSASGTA

The term inhibition denotes how much of the control response was suppressed. Turning to `O=C1OC(c2ccccc2)=N/C1=C\c1ccccc1`, in assay [1], the inhibition came out at 4%.
In general, IC50 refers to the midpoint of a concentration-inhibition curve. Take `O=C1OC(c2ccc(F)c(F)c2)=N/C1=C\c1cccnc1`: the inhibition was found to be 12% in [2]; 8% in [3]; 18% in assay [4]; 2% in [5]; 7% in assay [6]; 7% in assay [7]. The inhibition is 8% in assay [8]; 7% in [10]; 3% in [11]; 6% in [12]; 8% in [13]; 34% in [14]. Also, the inhibition came out at 97% in assay [15]; 2% in assay [16]; 98% in [1]; 25% in assay [17]; 0% in assay [18]; 89% in assay [19]. Also, the inhibition was 2% in assay [20] and 3% in [21]. In assay [9], the IC50 worked out at 0.346 µM.
Consider `O=C1OC(c2cccc(Br)c2)=N/C1=C\c1cccnc1`, for which the IC50 in [9] was determined as 0.148 µM. Besides, the inhibition in assay [1] and in assay [19] was 100% each time.
On to `O=C1OC(c2ccc(Cl)cc2)=C/C1=C\c1cccnc1`, for which the inhibition in assay [1] was determined as 3%.
In the case of `O=C1OC(c2cccc([N+](=O)[O-])c2)=N/C1=C\c1ccncc1`, the inhibition in assay [1] and in assay [19] was 0% throughout.
Turning to `O=C1OC(c2ccc(Cl)cc2Cl)=N/C1=C\c1cccnc1`, the results for the inhibition in assay [1] and in assay [19] were 78% and 42%, respectively.
With `Cc1cccc(C2=N/C(=C\c3cccnc3)C(=O)O2)c1`, the inhibition in assay [22] is 15%; in assay [2] it was 5%; in assay [3], 1%; in assay [4] it was 6%; in [7] it was 5%; in assay [8] it was 2%. The inhibition stood at 1% in assay [23]; 3% in [24]; 3% in [10]; 1% in [11]; 5% in assay [12]; 3% in [13]. The inhibition in assay [15] is 98%; in [1], 96%; in [17] it was 0%; in assay [19] it was 68%. Also, the IC50 in assay [9] was determined as 0.714 µM.
As for `COc1ccc(C2=N/C(=C\c3cccnc3)C(=O)O2)cc1Br`, the inhibition in assay [1] and in assay [19] was 32% throughout.
Consider `O=C1OC(C23CC4CC(CC(C4)C2)C3)=N/C1=C\c1cccnc1`, for which the inhibition in assay [1] amounted to 45%.
For `O=C1OC(c2ccc(Cl)c([N+](=O)[O-])c2)=N/C1=C\c1cccnc1`, in assay [9], the IC50 came out at 0.278 µM. Besides, the inhibition in [1] and in assay [19] was 100% in each case.
Consider `O=C1OC(c2ccccc2)=N/C1=C\c1ccncc1`, for which the values for the inhibition in assay [1] and in [19] were 1% and 0%, respectively.
For `COc1ccc(C2=N/C(=C\c3cccnc3)C(=O)O2)cc1OC`, the inhibition turned out to be 36% in assay [1] and 14% in assay [19].
Turning to `O=C1OC(c2ccc([N+](=O)[O-])cc2)=N/C1=C\c1cccnc1`, the IC50 in assay [9] was 0.291 µM. Further, the inhibition is 94% in [1] and 90% in [19].
With `O=C1OC(c2ccc(Cl)c([N+](=O)[O-])c2)=N/C1=C\c1ccncc1`, the values for the inhibition in assay [1] and in [19] were 10% and 0%, respectively.
Consider `O=C1OC(c2cc(I)ccc2Cl)=N/C1=C\c1ccncc1`, for which the IC50 in assay [9] was determined as 0.227 µM. Also, the results for the inhibition in assay [1] and in assay [19] were 97% and 83%, respectively.
The corresponding values for `COc1ccc(C2=N/C(=C\c3cccnc3)C(=O)O2)c(Br)c1` are 0.157 µM, 92% and 100%.
Regarding `O=C1OC(c2cccc(Br)c2)=N/C1=C\c1ccncc1`, the inhibition in assay [1] was found to be 0%; in [19], 1%.
As for `O=C1OC(c2cccc(Cl)c2)=N/C1=C\c1cccnc1`, the IC50 in assay [9] came to 0.36 µM. In addition, the inhibition amounted to 97% in assay [1] and 85% in [19].
Take `O=C1OC(c2ccc([N+](=O)[O-])cc2)=N/C1=C\c1ccncc1`: the inhibition in [1] is 2%; in assay [19] it was 0%.
For `Cc1ccc(C2=N/C(=C\c3cccnc3)C(=O)O2)cc1[N+](=O)[O-]`, the IC50 in [9] is 0.534 µM. In addition, the inhibition was 90% in assay [1] and 72% in assay [19].
The corresponding values for `COc1cccc(C2=N/C(=C\c3cccnc3)C(=O)O2)c1` are 0.395 µM, 100% and 99%.
`COc1cc(C2=N/C(=C\c3cccnc3)C(=O)O2)cc(OC)c1OC`: the values for the inhibition in [1] and in assay [19] were 33% and 26%, respectively.
Take `O=C1N=C(N2CCCCC2)S/C1=C\c1cccnc1`: in assay [1], the inhibition turned out to be 29%.

(Values after ChEMBL document CHEMBL1156313, “Structure-activity relationship of novel DAPK inhibitors identified by structure-based virtual screening” (Bioorg Med Chem, 2010).)
